Results reported in PMC6792352, “Limited Chemical Structural Diversity Found to Modulate Thyroid Hormone Receptor in the Tox21 Chemical Library” (Environmental Health Perspectives, 2019).
Counter-ions that a name gives are not always drawn.

Test: in vitro
Settings: rat, gh3-tre-luc cells, AC50 (uM) modified / 1000
For `CC[C@H]1NC(=O)[C@@H](NC(=O)c2ncccc2O)[C@@H](C)OC(=O)[C@H](c2ccccc2)NC(=O)[C@@H]2CC(=O)CCN2C(=O)[C@H](Cc2ccccc2)N(C)C(=O)[C@@H]2CCCN2C1=O` [Virginiamycin S1], the CC50 at 24 h was over 50 µM. `C=C(C)C(=O)OCc1ccccc1` [Benzyl methacrylate] gave a CC50 at 24 h of over 90 µM. `CC(C)(C1CCC(O)CC1)C1CCC(O)CC1` (centres unmarked) [4,4'-Propane-2,2-diyldicyclohexanol] gave a CC50 at 24 h of over 90 µM. Compound `OC1CCCCC1` [Cyclohexanol] has a CC50 at 24 h of over 100 µM. For `CCCCCCCCCCCCOCCCN` [Laurixamine], the CC50 at 24 h was over 50 µM. With `CN1[C@@H](CC(=O)c2ccccc2)CCC[C@H]1C[C@H](O)c1ccccc1` [Lobeline] the CC50 at 24 h was over 50 µM. Work on `OC[C@H]1O[C@@H](O[C@@H]2[C@@H](CO)OC(O)(CO)[C@H]2O)[C@H](O)[C@@H](O)[C@H]1O` (mixture of isomers) [Lactulose] yielded a CC50 at 24 h of over 50 µM. Work on `Cc1cc2c(cc1S(N)(=O)=O)S(=O)(=O)CCC2` [Meticrane] yielded a CC50 at 24 h of over 20 µM. Work on `CCCCOC(=O)c1ccccc1C(=O)OCc1ccccc1` [Benzyl butyl phthalate] yielded a CC50 at 24 h of over 90 µM. `COc1cc2[nH]c(C)c(CCN3CCN(c4ccccc4)CC3)c2cc1OC` [Oxypertine hydrochloride] gave a CC50 at 24 h of 23.2 µM. Compound `Cc1c(C(N)=O)cc([N+](=O)[O-])cc1[N+](=O)[O-]` [Zoalene] has a CC50 at 24 h of over 90 µM. Work on `C[Si]1(C)O[Si](C)(C)O[Si](C)(C)O[Si](C)(C)O[Si](C)(C)O1` [Decamethylcyclopentasiloxane] yielded a CC50 at 24 h of over 90 µM. `CC(C)(Oc1ccc(C2CCCc3ccccc32)cc1)C(=O)O` (centres unmarked) [Nafenopin] gave a CC50 at 24 h of over 50 µM. With `Fc1ccccc1[C@@H](F)COC1CCC(Nc2ncnc3[nH]ncc23)CC1` (some centres unmarked) [MK-968] the CC50 at 24 h was 82.7 µM. With `O=C(O)[C@@H]1[C@H]2C[C@H]3c4[nH]c5ccccc5c4CCN3C[C@@H]2CC[C@@H]1O` [Yohimbic acid monohydrate] the CC50 at 24 h was over 20 µM. Compound `CC(=O)Nc1ccc(OC(=O)c2ccccc2O)cc1` [Acetaminosalol] has a CC50 at 24 h of over 50 µM. Compound `OCCNCCO` [Diethanolamine] has a CC50 at 24 h of over 90 µM. Work on `CC1(C)CC(=O)CC(C)(C)N1` [2,2,6,6-Tetramethyl-4-piperidone] yielded a CC50 at 24 h of over 90 µM. Work on `CCCNCCC` [Dipropylamine] yielded a CC50 at 24 h of over 90 µM. Work on `COC(=O)CCCC(=O)O` [5-Methoxy-5-oxopentanoic acid] yielded a CC50 at 24 h of over 90 µM. With `COC(=O)CCC[N+](C)(C)C` [Carpronium chloride] the CC50 at 24 h was over 50 µM. In the case of `COP(=S)(OC)Oc1ccc([N+](=O)[O-])c(C)c1` [Fenitrothion], the CC50 at 24 h is reported as over 90 µM. `COCC(O)CO` (centres unmarked) [1-O-Methylglycerol] gave a CC50 at 24 h of over 100 µM. Work on `CN(C)C(=O)COC(=O)Cc1ccc(OC(=O)c2ccc(NC(=N)N)cc2)cc1` [Camostat mesylate] yielded a CC50 at 24 h of over 50 µM. `ClCOCCl` [bis(Chloromethyl) ether] gave a CC50 at 24 h of over 90 µM. With `Cc1cn([C@H]2C[C@H](F)[C@@H](CO)O2)c(=O)[nH]c1=O` [Alovudine] the CC50 at 24 h was over 50 µM. `C=CC(=O)OCCOCCOC(=O)C=C` [Diethylene glycol diacrylate] gave a CC50 at 24 h of 21.6 µM. With `O=Cc1ccc(Cl)c([N+](=O)[O-])c1` [4-Chloro-3-nitrobenzaldehyde] the CC50 at 24 h was over 90 µM. With `O=C1C[C@@H]2OCC=C3CN4CC[C@]56c7ccccc7N1[C@H]5[C@H]2[C@H]3C[C@H]46` [Strychnine] the CC50 at 24 h was over 50 µM. Compound `CO[C@@]12[C@H](COC(N)=O)C3=C(C(=O)C(C)=C(N)C3=O)N1C[C@@H]1N[C@@H]12` [Mitomycin C] has a CC50 at 24 h of 2.52 µM. `CC(C)=CCCC(C)CCO` (centres unmarked) [Citronellol] gave a CC50 at 24 h of over 100 µM. `C/C(=N\Cc1ccccc1)c1ccccc1O` [Oletimol] showed a CC50 at 24 h of over 50 µM. Work on `O=C(O)c1nn(Cc2ccc(Cl)cc2Cl)c2ccccc12` [Lonidamine] yielded a CC50 at 24 h of over 90 µM. Work on `ClC(Cl)=C(Cl)C(Cl)=C(Cl)Cl` [Hexachloro-1,3-butadiene] yielded a CC50 at 24 h of over 90 µM. `CCCCCCCCC=CCCCCCCCC1=NCCN1CCO` [2-(8-Heptadecenyl)-2-imidazoline-1-ethanol] gave a CC50 at 24 h of 23.2 µM. Work on `O=C1c2c(O)cccc2C([C@@H]2O[C@H](CO)[C@@H](O)[C@H](O)[C@H]2O)c2cc(CO)cc(O)c21` (some centres unmarked) [Aloin] yielded a CC50 at 24 h of over 50 µM. With `O=C(O)[C@H](O)c1ccccc1` [D-(-)-Mandelic acid] the CC50 at 24 h was over 50 µM. Compound `Cc1cc(O)c2ccccc2c1O` [Menadiol] has a CC50 at 24 h of 37.2 µM. In the case of `CC(C)(C)C(O)/C=C/c1ccc2c(c1)OCO2` (centres unmarked) [Stiripentol], the CC50 at 24 h is reported as over 50 µM. In the case of `CCNc1ccccc1` [N-Ethylaniline], the CC50 at 24 h is reported as over 90 µM. With `CC(C)CCCC(C)CCCC(C)CCCCC(C)CCCC(C)CCCC(C)C` (centres unmarked) [Squalane] the CC50 at 24 h was over 50 µM. In the case of `CCCCN(N=O)C(=N)N[N+](=O)[O-]` [N-Butyl-N'-nitro-N-nitrosoguanidine], the CC50 at 24 h is reported as 56.4 µM. With `CN1CCN(CCCN2c3ccccc3Sc3ccc(C(F)(F)F)cc32)CC1` [Fluoperazine dihydrochloride] the CC50 at 24 h was 7.86 µM. With `Nc1ccc(F)cc1` [4-Fluoroaniline] the CC50 at 24 h was over 100 µM. For `NCc1ccccc1` [Benzylamine], the CC50 at 24 h was over 90 µM. With `CN1C(CSCC(F)(F)F)Nc2cc(Cl)c(S(N)(=O)=O)cc2S1(=O)=O` (centres unmarked) [Polythiazide] the CC50 at 24 h was over 50 µM. `COc1ccccc1[N+](=O)[O-]` [1-Methoxy-2-nitrobenzene] gave a CC50 at 24 h of over 90 µM. In the case of `O=c1ssc(Cl)c1Cl` [4,5-Dichloro-3H-1,2-dithiol-3-one], the CC50 at 24 h is reported as 48 µM. `CC/C=C\C#N` [(2Z)-2-Pentenenitrile] gave a CC50 at 24 h of over 90 µM. `CC(C)[C@H]1CC[C@H](C(=O)N[C@H](Cc2ccccc2)C(=O)O)CC1` [Nateglinide] showed a CC50 at 24 h of over 50 µM. In the case of `COc1cc(N)c(Cl)cc1C(=O)NC1CN2CCC1CC2` (centres unmarked) [Zacopride hydrochloride], the CC50 at 24 h is reported as over 50 µM. Compound `CC(C)C(C(=O)OC(C#N)c1cccc(Oc2ccccc2)c1)c1ccc(OC(F)F)cc1` (centres unmarked) [Flucythrinate] has a CC50 at 24 h of over 90 µM. With `CCCCNc1c(C(=O)OCC)c(C)nc2c1cnn2CC` [Tracazolate hydrochloride] the CC50 at 24 h was over 50 µM. `CCCC[P+](C)(CCCC)CCCC` [Tributylmethylphosphonium methyl sulfate] gave a CC50 at 24 h of over 90 µM. For `CNC(=O)Oc1cccc(C(C)C)c1` [m-Cumenyl methylcarbamate], the CC50 at 24 h was over 90 µM. Work on `C/C(=C(\CCOC(=O)c1ccccc1)SS/C(CCOC(=O)c1ccccc1)=C(/C)N(C=O)Cc1cnc(C)nc1N)N(C=O)Cc1cnc(C)nc1N` [Bisbentiamine] yielded a CC50 at 24 h of 25.6 µM. `CN1CCN(CCC(=O)N2c3ccccc3Sc3ccc(C(F)(F)F)cc32)CC1` [Ftormetazine] gave a CC50 at 24 h of 25.8 µM. Work on `CCC(=O)Nc1cccc(N)c1` [N-(3-Aminophenyl)propanamide] yielded a CC50 at 24 h of over 90 µM. Work on `O=C(O)Cc1ccc(CCNS(=O)(=O)c2ccc(Cl)cc2)cc1` [Daltroban] yielded a CC50 at 24 h of over 50 µM. `O=C(O)[C@H](O)[C@@H](O)C(=O)O` [L-Tartaric acid] showed a CC50 at 24 h of over 90 µM. Work on `CC1=C(/C=C/C(C)=C/C=C/C(C)=C\C=O)C(C)(C)CCC1` [13-cis-Retinal] yielded a CC50 at 24 h of 45.2 µM. For `CCOc1ccc(N)c([N+](=O)[O-])c1` [4-Ethoxy-2-nitroaniline], the CC50 at 24 h was over 90 µM. For `COc1cc(N)ccc1C` [3-Methoxy-4-methylaniline], the CC50 at 24 h was over 90 µM. `CCOc1ccc2nc3cc(N)ccc3c(N)c2c1` [Ethacridine lactate hydrate] showed a CC50 at 24 h of over 50 µM. `CC(C)NCC(O)c1ccc(NS(C)(=O)=O)cc1` (centres unmarked) [Sotalol hydrochloride] showed a CC50 at 24 h of over 90 µM. `COC(=O)[C@H]1CC[C@H](C(=O)OC)CC1` [Dimethyl trans-cyclohexane-1,4-dicarboxylate] showed a CC50 at 24 h of over 90 µM. Compound `CC1(C)CC(N)CC(C)(CN)C1` (centres unmarked) [Isophorone diamine] has a CC50 at 24 h of over 90 µM. Compound `c1ccc2c(c1)-c1cccc3c1c-2cc1ccccc13` [Benzo(b)fluoranthene] has a CC50 at 24 h of over 90 µM. Work on `NC(=O)Nc1ccc(Cl)cc1` [4-Chlorophenylurea] yielded a CC50 at 24 h of over 90 µM. In the case of `ClC(Cl)(Br)Br` [Dibromodichloromethane], the CC50 at 24 h is reported as over 90 µM. For `Cc1nnc(C(=O)NC(C)(C)c2nc(C(=O)NCc3ccc(F)cc3)c(O)c(=O)n2C)o1` [Raltegravir], the CC50 at 24 h was over 50 µM. For `O=C(O)CCCc1ccccc1` [Sodium 4-phenylbutyrate], the CC50 at 24 h was over 50 µM. `CCCCCCCCCCCCCC[N+](C)(C)Cc1ccccc1` [Benzyldimethyltetradecylammonium chloride dihydrate] gave a CC50 at 24 h of 10.5 µM. `CC1=C(C=O)C(C)(C)CC=C1` [Safranal] gave a CC50 at 24 h of over 100 µM. In the case of `CO[C@H]1O[C@H](CO)[C@@H](O)[C@H](O)[C@H]1O` [Methyl alpha-D-glucopyranoside], the CC50 at 24 h is reported as over 90 µM.

Same assay, conditions: rat, gh3-tre-luc cells, AC50 (uM) modified / 1000, Tox21_110001=Tox21_110330; viability, 1 nM T3 present, 24 h
Compound `CCC(=O)O[C@H]1CC[C@H]2[C@@H]3CCC4=CC(=O)CC[C@]4(C)[C@H]3CC[C@]12C` [Testosterone propionate] has a CC50 at 24 h of over 20 µM.

Same assay, conditions: rat, gh3-tre-luc cells, AC50 (uM) modified / 1000, Tox21_110001=Tox21_110520; viability, 1 nM T3 present, 24 h
Compound `C[C@]12C[C@H]3S[C@H]3C[C@@H]1CC[C@@H]1[C@@H]2CC[C@]2(C)[C@@H](O)CC[C@@H]12` [Epitiostanol] has a CC50 at 24 h of over 20 µM.

Same assay, conditions: rat, gh3-tre-luc cells, AC50 (uM) modified / 1000, Tox21_110001=Tox21_111849; viability, 1 nM T3 present, 24 h
Compound `N#CC1(N2CCCCC2)CCCCC1` [1-Piperidinocyclohexanecarbonitrile] has a CC50 at 24 h of over 50 µM.

Same assay, conditions: rat, gh3-tre-luc cells, AC50 (uM) modified / 1000, Tox21_110001=Tox21_112876; viability, 1 nM T3 present, 24 h
With `CC(C)=CCN1CC[C@]2(C)c3cc(O)ccc3C[C@H]1[C@H]2C` [(+)-Pentazocine succinate] the CC50 at 24 h was over 90 µM.

Same assay, conditions: rat, gh3-tre-luc cells, AC50 (uM) modified / 1000, Tox21_110001=Tox21_200189; viability, 1 nM T3 present, 24 h
`BrC(Br)Br` [Bromoform] showed a CC50 at 24 h of over 90 µM.

Same assay, conditions: rat, gh3-tre-luc cells, AC50 (uM) modified / 1000, Tox21_110001=Tox21_201837; viability, 1 nM T3 present, 24 h
`CN(C)P(=O)(N(C)C)N(C)C` [Hexamethylphosphoramide] showed a CC50 at 24 h of over 90 µM.

Same assay, conditions: rat, gh3-tre-luc cells, AC50 (uM) modified / 1000, Tox21_110001=Tox21_202199; viability, 1 nM T3 present, 24 h
In the case of `CN(C)NC(=O)CCC(=O)O` [Daminozide], the CC50 at 24 h is reported as over 90 µM.

Same assay, conditions: rat, gh3-tre-luc cells, AC50 (uM) modified / 1000, Tox21_110001=Tox21_302270; viability, 1 nM T3 present, 24 h
With `CCC(=O)O[C@H]1CC[C@H]2[C@@H]3CCC4=CC(=O)CC[C@]4(C)[C@H]3CC[C@]12C` [Testosterone propionate] the CC50 at 24 h was 55 µM.
